Experiments:
[1] = test system: MDA-MB-231 xenograft tumors; assay: Histology of tumors (H&E staining, TUNEL IHC) in MDA-MB-231 xenograft model; format: in vivo, mouse; conditions: 100 and 200 mg/kg orally, 5 days; particularly at 200 mg/kg
Protocol: We further performed pharmacodynamic studies of ZLC491 in an MDA-MB-231 xenografted mouse model. ZLC491 was orally administrated at two doses of 100 and 200 mg/kg, respectively, for 5 consecutive days (Figure 7A). Tumor tissues were harvested on day 5 and subjected to Western blot analysis. […] Additionally, we conducted further histological analysis on the tumors following ZLC491 treatment.
Figure 7 ZLC491 depleted CDK12 and CDK13 proteins in vivo. (A) Study design of pharmacodynamics assessment on target engagement of ZLC491 in the MDA-MB-231 xenograft model; (B) immunoblotting of CDK12, CDK13, and α-tubulin in tissue lysate of MDA-MB-231 xenografts model after ZLC491 treatment; (C) protein levels were quantified using ImageJ and normalized to corresponding α-tubulin, then plotted using GraphPad Prism 8.0; (D) immunohistochemistry (IHC) analysis on the tumors by H&E staining and TUNEL assays; (E) TUNEL histology scores were analyzed and plotted by GraphPad Prism 8.0; (F) body weight change during the treatment.
H&E staining of formalin-fixed paraffin embedded (FFPE) tissue sections was performed using Leica Autostainer XL as per manufacturer’s protocol. […] Cells which were intensely stained for DAB pigment were considered to be apoptotic and they were quantified as numbers per 10 high power field (hpf, 400× magnification).

DDR genes = assay: RT-qPCR of DDR genes in MDA-MB-231 cells; format: cell-based, human; conditions: MDA-MB-231, different doses, 12 h
Protocol: We next evaluated the effect of ZLC491 on the expression of DDR genes regulated by CDK12/13.
(A) Transcription level of DDR genes in MDA-MB-231 cells determined by RT-qPCR upon the treatment with vehicle or ZLC491 at different doses for 12 h, ROR1 was used as a negative control; (B) immunoblotting of DDR proteins in MDA-MB-231 cells after the treatment of ZLC491 at different doses for 48 h; (C) cell antiproliferative activity of ZLC491 in multiple TNBC cells as well as several noncancerous cells. Cells were treated with the compound for 5 days; (D,E) antiproliferative potency of cisplatin or olaparib alone or combined with ZLC491 at different doses in MDA-MB-231 cells for 5 days. Data are plotted using the percentage of absorbance relative to DMSO controls. (F) IC50 values and combination index (CI) in drug combination assay. In this model, CI scores estimate the interaction between the two drugs. If CI < 1, the drugs have a synergistic effect and if CI > 1, the drugs have an antagonistic effect. […]
RNA utilized for RT-qPCR was extracted as outlined below. […] Expression was normalized to GAPDH, and fold change in expression was calculated relative to the indicated conditions using ΔΔCt method.

N#Cc1ccc(N[C@H]2CC[C@H](N(C(=O)NCc3ccccc3)c3ccc(N4CCN(C5CCN(c6cc7c(cc6F)C(=O)N(C6CCC(=O)NC6=O)C7=O)CC5)CC4)cc3)CC2)nc1 (some centres unmarked) [ZLC491, 3-Benzyl-1-((1r,4r)-4-((5-cyanopyridin-2-yl)amino)cyclohexyl)-1-(4-(4-(1-(2-(2,6-dioxopiperidin-3-yl)-6-fluoro-1,3-dioxoisoindolin-5-yl)piperidin-4-yl)piperazin-1-yl)phenyl)urea]
apoptosis in tumors (H&E staining, TUNEL IHC) [1]: marked apoptosis and increased TUNEL signaling
transcription of DDR genes (ATM, ATR, BRCA1, BRCA2, FANCD2, SMARCC) (DDR genes): concentration-dependently suppressed

Source: publication PMC11513923, “Discovery of ZLC491 as a Potent, Selective, and Orally Bioavailable CDK12/13 PROTAC Degrader” (Journal of Medicinal Chemistry, 2024)
